Assay results from patent US11390580B2, “Anti-fungals targeting the synthesis of fungal shingolipids” (THE RESEARCH FOUNDATION FOR THE STATE UNIVERSITY OF NEW YORK, priority 2014, dated 2022).
Converted amounts (≈) assume the structure as drawn. “Also recorded” adds a separate entry of the source. Read-outs that look alike come from different tables or passages of the source.

How the values were obtained:
Pharmacokinetics of BHBM [1] = assay type: in vivo, mice
Experimental: The mice from each group were sacrificed and blood samples were collected at pre-dose and 0.5, 1, 2, 4, 8, 12, and 24 post-administration into K2EDTA containing tubes. The samples were centrifuged immediately and plasma was collected and stored at −80° C. until analysis. Plasma samples were extracted using methylene chloride. […] After mixing, 1 ml of methylene chloride was added and the samples were vortex mixed for 30 seconds followed by centrifugation for 5 minutes. […] The residue was reconstituted in 100 μL acetonitrile: water (50:50) solution, mixed and transferred to mass spec vials. […] The mobile phase consisted of water: acetonitrile with 0.1% formic acid (50:50) ran at a flow rate of 200 μL/min. Aliquots of 5 μL were analyzed using LTQ-FT liquid chromatography/tandem mass spectrometer (LC/MS/MS) with electrospray source in the positive ion mode (ThermoFisher Scientific, Waltham, Mass.). The retention time of BHBM was 5.7 mins. The lower limit of quantification (LLOQ) was 10 ng/ml. Systemic exposure of BHBM in mice was quantified by calculating the AUC of the drug from pre-dose to the end of the dosing interval (AUC0-t) using the linear trapezoidal rule by non-compartmental analysis employing Phoenix winNonlin 6.3 (Pharsight Corp, Mountain View, Calif.). The elimination half-life (t1/2) was calculated as 0.693/λz, where λz is the terminal elimination rate constant. Bioavailability of IP route was calculated.

[2] = In vivo toxicity in uninfected mice
C. neoformans = assay: In vitro killing assay (time-kill, CFU); assay type: cell-based, Cryptococcus neoformans
Experimental: At the illustrated time points, aliquots were taken and diluted and 100 μL was plated onto yeast peptone dextrose (YPD) plates. YPD plates were incubated in a 30° C. incubator and, after 72 hours, colony forming units (CFU) were counted and recorded.

[3] = tested on: Golgi morphology of C. albicans; assay: C6-NBD-ceramide staining of the Golgi; assay type: cell-based, Candida albicans; settings: 4 μg/ml
Experimental: The Golgi apparatus of C. neoformans and C. albicans was stained with C6-NBD-ceramide using a previously described protocol (Kmetzsch, L. et al. 2011), based on the property that this fluorescent lipid accumulates at the Golgi of either living or fixed cells (Pagano R. E. et al. 1989). […] Cell suspensions were then washed with the same buffer and incubated with C6-NBD-ceramide ([…]) for 16 h at 4° C. The cells were then incubated with bovine serum albumin (BSA, 1%) at 4° C. for 1 h to remove the excess of C6-NBD-ceramide. […] Louis, USA) for 30 min at room temperature. The cells were washed again with PBS and stained cell suspensions were mounted over glass slides as described above and analyzed under an Axioplan 2 (Zeiss, Germany).

Candida parapsilosis = assay: In vitro susceptibility testing (MIC); assay type: cell-based; settings: for BHBM 24 Hr 50% / BHBM 48 Hr 50%: MIC, FTL strains
Paecilomyces variotii = assay: In vitro susceptibility testing (MIC); assay type: cell-based; settings: for BHBM 24 Hr 50% / BHBM 48 Hr 50%: MIC, QC strain
Sld8 = assay: In vitro Sld8 activity; assay type: biochemical, C. neoformans
Pneumocystis jiroveci = assay: In vitro testing by ATP content (luciferin-luciferase); settings: for inhibition at 0.1 µg/mL / inhibition at 1 µg/mL / inhibition at 10 µg/mL / inhibition at 100 µg/mL: read-out: percentage inhibition of ATP
Smt1 = assay: In vitro Smt1 activity; assay type: biochemical, C. neoformans
[4] = tested on: C. neoformans secreted vesicles; assay: Vesicle secretion measured by vesicular sterols; assay type: cell-based, Cryptococcus neoformans
Excerpt: WF, white field; NBD-Cer, NBD-ceramide.

C. neoformans (H99) = assay: Transmission electron microscopy of treated cells; settings: 4 μg/mL, 6 hours
Candida spp = assay: In vitro susceptibility testing; assay type: cell-based; settings: most Candida spp examined
[5] = tested on: synthesis of GlcCer in C. albicans cells; assay: GlcCer synthesis in C. albicans; assay type: cell-based, Candida albicans
[6] = tested on: C. neoformans sphingolipids; assay: Sphingolipid levels by TLC and lipid mass spectrometry; assay type: cell-based, Cryptococcus neoformans
Experimental: Labeling fungal cells. […] Samples without drug were included as control. Before lipid extraction, lipid internal standards (C17 ceramide and C17 sphingosine) were added. Lipids were then extracted following the methods of […] and Bligh and Dyer and one fourth of the sample was aliquoted for determination of the inorganic phosphate. The remainder of the sample was subjected to base hydrolysis and then analyzed using LC/MS. Results were normalized with the inorganic phosphate levels.

Pharmacokinetics of BHBM [7] = assay type: in vivo, mice; settings: preliminary studies
[8] = C3H/HeN, mouse, in vivo, ip, 0.8 mg/kg
[9] = C3H/HeN, mouse, in vivo, ip, 1.6 mg/kg
[10] = TLC, confirmed by mass spectrometry

With `Cc1ccccc1C(=O)NN=Cc1ccc(O)c(Br)c1` [BHBM, N′-(3-bromo-4-hydroxybenzylidene)-2-methylbenzohydrazide] the “improvement in survival, low dose vs vehicle treated negative controls” value (P. murina; 0.8 mg/Kg/twice a day, 13 days) was “the difference was not significant”, the “survival, low dose vs high dose” value (P. murina; 0.8 or 1.6 mg/Kg/twice a day, 13 days) was “low dose mice showed improved survival over the high dose mice” and the “number of asci and nuclei in lung homogenates vs negative control” value (P. murina; 13 days of treatment) was “No significant differences”. For the same compound, the bioavailability (Pharmacokinetics of BHBM [1]; [8]) was 93.6%, the half-life (Pharmacokinetics of BHBM [1]; [8]) was 0.79 h and the bioavailability (Pharmacokinetics of BHBM [1]; [9]) was 100.33%. It also gave a half-life (Pharmacokinetics of BHBM [1]; [9]) of 0.84 h, a half-life (Pharmacokinetics of BHBM [1]; C3H/HeN, mouse, in vivo, iv, 1.6 mg/kg) of 1.24 h and a bioavailability (Pharmacokinetics of BHBM [1]; C3H/HeN, mouse, plasma, 0.8 mg/kg, immunocompetent mice, IP low dose, read-out: bioavailability) of 93.6%. For the same compound, the half-life (Pharmacokinetics of BHBM [1]; C3H/HeN, mouse, plasma, intraperitoneal, 1.6 mg/kg) was roughly 1.4 h, the “systemic exposure (AUC0-t and Cmax)” value (Pharmacokinetics of BHBM [1]; IP administration, compared to normal group) was “higher in immunosuppressed/infected group” and the bioavailability (Pharmacokinetics of BHBM [1]; immunocompetent mice, IP high dose) was 90.59%. The half-life (Pharmacokinetics of BHBM [1]; immunocompetent mice, IP high dose (1.6 mg/kg)) was 1.43 h, the half-life (Pharmacokinetics of BHBM [1]; immunocompetent mice, IP low dose (0.8 mg/kg)) was 1.70 h and the half-life (Pharmacokinetics of BHBM [1]; immunocompetent mice, IV high dose (1.6 mg/kg)) was 1.03 h. For the same compound, the “liver Aspartate aminotransferase (AST)” value ([2]; 1.2 mg/kg/day intraperitoneally for 60 days) was 125±75 U/L, the “other blood parameters for liver and kidney function” value ([2]; 60 days) was “normal” and the “histological analysis of organs vs untreated uninfected mice” value ([2]; lungs, brains, kidney, spleen, liver, 60 days) was “no difference”. For the same compound, the “appearance, weight, physical activity and behavior” value ([2]; treated daily for 60 days) was “appeared normal”, the “incubation required to kill about 50% of the cells” value (C. neoformans) was “at least 72 hours” and the type of killing (C. neoformans; time-kill assay) was “concentration-dependent killing”. For the same compound, the Golgi morphology [3] was “changes in the Golgi morphology were dramatic”, the “in vitro activity” value (Candida parapsilosis) was “not active” and the MIC range (Candida parapsilosis; 3 MDP Lab strains) was greater than 32 µg/mL. For the same compound, the “BHBM 24 Hr 50%” value (Candida parapsilosis) was greater than 16, the “BHBM 48 Hr 50%” value (Candida parapsilosis) was greater than 16 and the “BHBM 24 Hr 50%” value (Candida parapsilosis; first listing r7-r78) was greater than 16. For the same compound, the “BHBM 48 Hr 50%” value (Candida parapsilosis; first listing r7-r78) was greater than 16, the MIC range (Candida parapsilosis; QC, Fungus Testing Lab) was greater than 16 µg/mL and the “in vitro activity” value (Paecilomyces variotii) was “not active”. The “BHBM 24 Hr 50%” value (Paecilomyces variotii) was 8, the “BHBM 48 Hr 50%” value (Paecilomyces variotii) was greater than 16 and the “BHBM 24 Hr 50%” value (Paecilomyces variotii; first listing r7-r78) was 8. For the same compound, the “BHBM 48 Hr 50%” value (Paecilomyces variotii; first listing r7-r78) was greater than 16, the MIC range (Paecilomyces variotii; QC, Fungus Testing Lab) was greater than 16 µg/mL and the “in vitro activity of Sld8” value (Sld8) was “does not inhibit”. It also gave an IC50 (Pneumocystis jiroveci; 24 h, read-out: IC50, P. jiroveci) of 0.912 µg/mL (≈ 2.74 µM), an inhibition at 0.1 µg/mL (Pneumocystis jiroveci; 24 h) of 16.1% and an inhibition at 1 µg/mL (Pneumocystis jiroveci; 24 h) of 51.5%. For the same compound, the inhibition at 10 µg/mL (Pneumocystis jiroveci; 24 h) was 97%, the inhibition at 100 µg/mL (Pneumocystis jiroveci; 24 h) was 98.9% and the IC50 (Pneumocystis jiroveci; 48 h, read-out: IC50, P. jiroveci) was 0.159 µg/mL (≈ 0.477 µM). The inhibition at 0.1 µg/mL (Pneumocystis jiroveci; 48 h) was 26.2%, the inhibition at 1 µg/mL (Pneumocystis jiroveci; 48 h) was 92.6% and the inhibition at 10 µg/mL (Pneumocystis jiroveci; 48 h) was 97.8%. The inhibition at 100 µg/mL (Pneumocystis jiroveci; 48 h) was 98.6%, the IC50 (Pneumocystis jiroveci; 72 h, read-out: IC50, P. jiroveci) was 0.074 µg/mL (≈ 0.222 µM) and the inhibition at 0.1 µg/mL (Pneumocystis jiroveci; 72 h) was 39.1%. It also gave an inhibition at 1 µg/mL (Pneumocystis jiroveci; 72 h) of 87.8%, an inhibition at 10 µg/mL (Pneumocystis jiroveci; 72 h) of 94.8% and an inhibition at 100 µg/mL (Pneumocystis jiroveci; 72 h) of 98.1%. It also gave an IC50 (Pneumocystis jiroveci; 96 h, read-out: IC50, P. jiroveci) of 0.072 µg/mL (≈ 0.216 µM), an inhibition at 0.1 µg/mL (Pneumocystis jiroveci; 96 h) of 46.2% and an inhibition at 1 µg/mL (Pneumocystis jiroveci; 96 h) of 77%. The inhibition at 10 µg/mL (Pneumocystis jiroveci; 96 h) was 90.1%, the inhibition at 100 µg/mL (Pneumocystis jiroveci; 96 h) was 98.9% and the IC50 (Pneumocystis jiroveci; read-out: activity class by IC50, P. jiroveci) was 0.011 to 0.099 µg/mL (≈ 0.033 to 0.297 µM). The “in vitro activity of Smt1” value (Smt1) was “does not inhibit”, the “secreted vesicles measured by sterol content” value [4] was “marked reductions of secreted vesicles” and the “number of vacuoles per μm^2 of cell surface area” value (C. neoformans (H99)) was 0.84±0.58. The in vitro susceptibility (Candida spp) was “resistant”, the “synthesis of GlcCer” value [5] was “inhibited in a dose dependent manner” and the sphingosine-1-phosphate level ([6]; TLC) was “increased”. For the same compound, the GlcCer level [6, 10] was “decreased”, the dihydroceramide level [6, 10] was “increased” and the sphingosine level [6, 10] was “increased; also recorded: accumulation of sphingosines”. For the same compound, the “level of IPC” value ([6]; data not shown) was “does not decrease the level of IPC” and the “tissue distribution, brain” value (Pharmacokinetics of BHBM [7]) was “found in the brain tissue”.
